Reference: ChEMBL document CHEMBL1201862, “PubChem BioAssay data set” (2004)
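Tested at 5 concentrations; 48 h exposure; 96-well plates; endpoints linearly interpolated, else capped at highest concentration. GI50 = concentration required for 50% inhibition of growth.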 Calls of active or inactive are those of the source. No stated cut-off is given here; in the data, active = GI50 up to about 1.1 µM and inactive = higher.

How the values were obtained:
Assay in all cases: NCI anticancer screen, dose series, 48 h
A498 = tested on: A498
A549 = tested on: A549
DMS-114 = tested on: DMS-114
HCT-116 = tested on: HCT-116
HCT-15 = tested on: HCT-15
HL-60 = tested on: HL-60
LOX IMVI = tested on: LOX IMVI
NCI-H522 = tested on: NCI-H522
OVCAR-4 = tested on: OVCAR-4
SF-295 = tested on: SF-295
SN12C = tested on: SN12C
SNB-19 = tested on: SNB-19
SNB-75 = tested on: SNB-75
BT-549 = tested on: BT-549
MCF7 = tested on: MCF7
MDA-N = tested on: MDA-N
PC-3 = tested on: PC-3
T47D = tested on: T47D
UACC-62 = tested on: UACC-62
DMS-273 = tested on: DMS-273

Structure (SMILES)	GI50 (A498)	GI50 (A549)	GI50 (DMS-114)	GI50 (HCT-116)	GI50 (HCT-15)	GI50 (HL-60)	GI50 (LOX IMVI)	GI50 (NCI-H522)	GI50 (OVCAR-4)	GI50 (SF-295)	GI50 (SN12C)	GI50 (SNB-19)	GI50 (SNB-75)	GI50 (BT-549)	GI50 (MCF7)	GI50 (MDA-N)	GI50 (PC-3)	GI50 (T47D)	GI50 (UACC-62)	GI50 (DMS-273)
O=c1c2ccccc2[nH]c(=S)n1-c1ccc(Br)cc1	51.6 µM (inactive)	33.3 µM (inactive)	46.7 µM (inactive)	68.4 µM (inactive)	71.9 µM	> 100 µM (inactive)	48.5 µM (inactive)	43.1 µM (inactive)	44.8 µM (inactive)	66.8 µM (inactive)	> 100 µM (inactive)	> 100 µM (inactive)	30.7 µM (inactive)							
O=c1cc(-c2ccc(O)cc2)oc2cc(O[C@@H]3O[C@H](CO)[C@@H](O)[C@H](O)[C@H]3O)cc(O)c12 [APIGETRIN]	67.1 µM (inactive)	51.3 µM (inactive)		33.4 µM (inactive)	16.6 µM	80.5 µM (inactive)	33.1 µM (inactive)	31.1 µM (inactive)	28.2 µM (inactive)	62.8 µM (inactive)	> 100 µM (inactive)	39.4 µM (inactive)	40.8 µM (inactive)	24.4 µM (inactive)	> 100 µM (inactive)	46 µM (inactive)	33.2 µM (inactive)	81.7 µM (inactive)	43.3 µM (inactive)	
Cc1cnc2[nH]c(-c3cccc(F)c3)cc(=O)c2c1	0.0579 µM (active)	0.0515 µM (active)		0.034 µM (active)	0.0267 µM	0.0186 µM (active)	0.0668 µM (active)	0.0255 µM (active)	1.31 µM (inactive)	0.0322 µM (active)	0.0687 µM (active)	0.0546 µM (active)	0.0171 µM (active)	0.0757 µM (active)	0.115 µM (active)	0.0112 µM (active)	0.0239 µM (active)	15.6 µM (inactive)	0.0392 µM (active)	
CC1CC[C@@]2(OC1)OC1C[C@H]3[C@@H]4CC[C@H]5CC(OC6OC(CO)C(O)C(OC7OC(CO)C(OC8OC(CO)C(O)C(OC9OC(CO)C(O)C(O)C9O)C8OC8OC(CO)C(O)C(O)C8O)C(O)C7O)C6O)[C@H](O)CC5(C)[C@H]4CCC3(C)C1[C@@H]2C (some centres undefined)	1.06 µM (active)	9.4 µM (inactive)		5.14 µM (inactive)	9.48 µM	2.57 µM (inactive)	2.29 µM (inactive)	1.66 µM (inactive)	2.4 µM (inactive)	2.99 µM (inactive)	2.49 µM (inactive)	2.2 µM (inactive)	3.98 µM (inactive)	4.37 µM (inactive)	1.66 µM (inactive)	6.59 µM (inactive)	1.29 µM (inactive)	1.37 µM (inactive)	8.69 µM (inactive)	
CCc1nc(N)nc(N)c1-c1ccc(NCCc2ccccc2)c([N+](=O)[O-])c1	3.05 µM (inactive)	0.0861 µM (active)		0.0649 µM (active)	0.108 µM	0.186 µM (active)	0.199 µM (active)	0.56 µM (active)	3.24 µM (inactive)	0.317 µM (active)	1.34 µM (inactive)	2.21 µM (inactive)	3.56 µM (inactive)	4.62 µM (inactive)	1.13 µM (inactive)	0.195 µM (active)	0.272 µM (active)	4.51 µM (inactive)	0.162 µM (active)	
CCOC(=O)C1(C#N)C(=O)c2cc[n+](CC[n+]3ccc4c(c3)C(=O)C(C#N)(C(=O)OCC)C4=O)cc2C1=O (centres undefined)	> 100 µM (inactive)	> 100 µM (inactive)		> 100 µM (inactive)	> 100 µM	83.4 µM (inactive)	74.1 µM (inactive)	> 100 µM (inactive)	> 100 µM (inactive)	> 100 µM (inactive)	> 100 µM (inactive)	> 100 µM (inactive)	> 100 µM (inactive)	> 100 µM (inactive)	> 100 µM (inactive)	64.1 µM (inactive)	> 100 µM (inactive)	53.3 µM (inactive)	> 100 µM (inactive)	
O=C1/C(=C/c2ccc(O)cc2)CCc2ccccc21	24.7 µM (inactive)	23.6 µM (inactive)		16.1 µM (inactive)	18.8 µM	6.14 µM (inactive)	20 µM (inactive)	3.05 µM (inactive)	18.5 µM (inactive)	28 µM (inactive)	18.3 µM (inactive)	22.4 µM (inactive)	26.9 µM (inactive)	20 µM (inactive)	6.38 µM (inactive)	22.1 µM (inactive)	16.8 µM (inactive)	50.6 µM (inactive)	21.5 µM (inactive)	
Cc1ccc(O)c(C(c2ccc(C(c3cc(C)ccc3O)c3cc(C)ccc3O)cc2)c2cc(C)ccc2O)c1	1.56 µM (inactive)	1.67 µM (inactive)		1.67 µM (inactive)	1.8 µM	2.26 µM (inactive)	1.69 µM (inactive)	2.08 µM (inactive)	1.79 µM (inactive)	2.06 µM (inactive)	1.65 µM (inactive)	1.52 µM (inactive)	1.89 µM (inactive)	2.01 µM (inactive)	2.31 µM (inactive)	1.52 µM (inactive)	1.59 µM (inactive)	1.75 µM (inactive)	1.71 µM (inactive)	
C(=N\Nc1ccc(-c2nc3ccccc3[nH]2)cc1)/c1c(-c2ccc(Cc3ccccc3)cc2)[nH]c2ccccc12	11.4 µM (inactive)	6.85 µM (inactive)		5.01 µM (inactive)	4.07 µM	7.06 µM (inactive)	4.05 µM (inactive)	9.08 µM (inactive)	14.1 µM (inactive)	2.56 µM (inactive)	18.6 µM (inactive)	14.2 µM (inactive)	4.47 µM (inactive)	4.1 µM (inactive)	5.06 µM (inactive)	2.38 µM (inactive)	4.86 µM (inactive)	7.18 µM (inactive)	7.69 µM (inactive)	
CCOC(=O)COc1ccc2c(C)cc(=O)oc2c1	> 100 µM (inactive)	> 100 µM (inactive)		> 100 µM (inactive)	> 100 µM	> 100 µM (inactive)	> 100 µM (inactive)	> 100 µM (inactive)	> 100 µM (inactive)	> 100 µM (inactive)	> 100 µM (inactive)	> 100 µM (inactive)	> 100 µM (inactive)	> 100 µM (inactive)	> 100 µM (inactive)	> 100 µM (inactive)	> 100 µM (inactive)	> 100 µM (inactive)	> 100 µM (inactive)	
CC(C)OC(=O)c1ccc(CCC2=CC(=O)C(Br)=CC2=O)cc1	35.9 µM (inactive)	34.7 µM (inactive)		16.7 µM (inactive)	15.4 µM	2.16 µM (inactive)	15.9 µM (inactive)	5.56 µM (inactive)	5.75 µM (inactive)	19.9 µM (inactive)	16.9 µM (inactive)	15.3 µM (inactive)	16.1 µM (inactive)	5.27 µM (inactive)	17.7 µM (inactive)	16.4 µM (inactive)	17 µM (inactive)	19.6 µM (inactive)	17.5 µM (inactive)	
COc1ccc(NC(=O)CC2S/C(=N\c3ccccc3C)NC2=O)c([N+](=O)[O-])c1 (centres undefined)		> 100 µM (inactive)		> 100 µM (inactive)	> 100 µM	> 100 µM (inactive)	> 100 µM (inactive)	25.4 µM (inactive)	> 100 µM (inactive)	> 100 µM (inactive)	> 100 µM (inactive)	> 100 µM (inactive)	> 100 µM (inactive)						> 100 µM (inactive)	> 100 µM (inactive)
COC(=O)c1cc(CC2Cc3cc4c(cc3C2=O)CCC4)cc2c1CCC2 (centres undefined)	> 100 µM (inactive)	> 100 µM (inactive)		42.2 µM (inactive)	> 100 µM	> 100 µM (inactive)	> 100 µM (inactive)	54.3 µM (inactive)	33.2 µM (inactive)	35.1 µM (inactive)	> 100 µM (inactive)	> 100 µM (inactive)	31.3 µM (inactive)	60 µM (inactive)	45.8 µM (inactive)	70.6 µM (inactive)	15.2 µM (inactive)	> 100 µM (inactive)	95.1 µM (inactive)	
O=C1C2CC(Cl)C(SSC3CC4C(=O)N(SC(Cl)(Cl)C(Cl)Cl)C(=O)C4CC3Cl)CC2C(=O)N1SC(Cl)(Cl)C(Cl)Cl (centres undefined)	2.81 µM (inactive)	2.86 µM (inactive)		2.49 µM (inactive)	1.29 µM	0.543 µM (active)	1.34 µM (inactive)	0.379 µM (active)	2.13 µM (inactive)	5.13 µM (inactive)	1.91 µM (inactive)	3.86 µM (inactive)	2.05 µM (inactive)	1.7 µM (inactive)	1.67 µM (inactive)	1.7 µM (inactive)	1.29 µM (inactive)	2.25 µM (inactive)	1.69 µM (inactive)	
CN(O)C(=O)CCC(NC(=O)CCC(N)C(=O)O)C(=O)NCC(=O)O (centres undefined)	> 100 µM (inactive)	> 100 µM (inactive)		> 100 µM (inactive)	> 100 µM	> 100 µM (inactive)	> 100 µM (inactive)	> 100 µM (inactive)	> 100 µM (inactive)	> 100 µM (inactive)	> 100 µM (inactive)	> 100 µM (inactive)	> 100 µM (inactive)	> 100 µM (inactive)	> 100 µM (inactive)	> 100 µM (inactive)	> 100 µM (inactive)	> 100 µM (inactive)	> 100 µM (inactive)	
CCC1C(C(=O)Nc2ccccc2C)=C(C)NC(C)=C1c1ccccc1C (centres undefined)	> 100 µM (inactive)	> 78 µM (inactive)		> 48.6 µM (inactive)	> 40.1 µM	11.6 µM (inactive)	> 57.8 µM (inactive)	> 100 µM (inactive)	> 100 µM (inactive)	> 100 µM (inactive)	> 100 µM (inactive)	> 100 µM (inactive)	> 100 µM (inactive)						> 100 µM (inactive)	> 49 µM (inactive)
